Measured values: the supplement of paper PMC11208160

Assay: recombinant barcode read abundance after kanamycin selection (control-corrected) (log10(CPM+1)); higher = more efficient recombination; sequences stand for … in AGTGCAGAGAAAATCGGCCAGTTTTCTCTGCCTGCAGTCCGCATGCCGT…AGATTTATGCAGCGGACTGCCTTTCTCCCAAAGTGATAAACCGGACAGTATCATGGACCGGTTTTCCCGGTAATCCGTATTTGCAAGGTTGGTTTCACT; site = the 11-nt target
Outline: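 A vector carrying a T7-inducible recombinase and the last 73 bp of the bridge RNA received, by Gibson cloning, oligos encoding a promoter, target, barcode and the first 104 bridge RNA bases under J23119. The pooled constructs entered E. coli together with a donor plasmid by electroporation. Selection used chloramphenicol/ampicillin/kanamycin with 0.1 mM IPTG, with chloramphenicol/ampicillin LB agar as the control, each in two replicates. Recombination efficiency is the averaged, control-corrected counts-per-million of barcodes at recombinant junctions, reported as log10(CPM+1).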

Sequence | recombinant barcode read abundance (log10)
TTCTAGACTTGGGTTCTAACCTGTTGCCA (site GTCTATACTTG) | 0.16
TTCTAGACTTGGGTTCTAACCTGTTGCCA (site TTCTAGACTTG) | 0.353
TTCTCGCCTTGGGTTCTAACCTGTTGCCT (site TTCACGCCTAG) | 0.0182
TTCTCGCCTTGGGTTCTAACCTGTTGCCT (site TTCCCGCCTAG) | 0.536
TTCTCGCCTTGGGTTCTAACCTGTTGCCT (site TTCGCGCCTAG) | 0.00706
TTCTCGCCTTGGGTTCTAACCTGTTGCCT (site TTCTCGCCTAG) | 0.576
TTCTGTCCTTGGGTTCTAACCTGTTGCCT (site TTCTATCCTAG) | 0.0361
TTCTGTCCTTGGGTTCTAACCTGTTGCCT (site TTCTCTCCTAG) | 0.0821
TTCTGTCCTTGGGTTCTAACCTGTTGCCT (site TTCTGTCCTAG) | 0.799
TTCTGTCCTTGGGTTCTAACCTGTTGCCT (site TTCTTTCCTAG) | 0.0428
TTCTGTTCTTGGGTTCTAACCTGTTGCCT (site TTCTCTTCTAG) | 0.0281
TTCTGTTCTTGGGTTCTAACCTGTTGCCT (site TTCTGTTCTAG) | 0.196
TTCTTAACTTGGGTTCTAACCTGTTGCGG (site ACTGATCCTAT) | 0.0323
TTCTTAACTTGGGTTCTAACCTGTTGCGG (site TTCTTAACTCC) | 0.532
TTGAACCCTTGGGTTCTAACCTGTTGCGT (site ATGAACCCTAC) | 0.303
TTGAACCCTTGGGTTCTAACCTGTTGCGT (site TTGAACCCTAC) | 1.63
TTGAAGCCTTGGGTTCTAACCTGTTGCCT (site ATGAAGCCTAG) | 0.41
TTGAAGCCTTGGGTTCTAACCTGTTGCCT (site CTGAAGCCTAG) | 0.0479
TTGAAGCCTTGGGTTCTAACCTGTTGCCT (site GTGAAGCCTAG) | 0.0341
TTGAAGCCTTGGGTTCTAACCTGTTGCCT (site TTGAAGCCTAG) | 1.38
TTGAATTCTTGGGTTCTAACCTGTTGCTT (site TTGAATTCTAA) | 0.0275

Sequence | recombinant barcode read abundance (log10)
TTGAATTCTTGGGTTCTAACCTGTTGCTT (site TTGTATTCTAG) | 0.234
TTGACACCTTGGGTTCTAACCTGTTGCCT (site GGAGTCACTCC) | 0.0713
TTGACACCTTGGGTTCTAACCTGTTGCCT (site TTGACACCTAG) | 1.1
TTGACTGCTTGGGTTCTAACCTGTTGCCT (site TTGAATGCTAG) | 0.0744
TTGACTGCTTGGGTTCTAACCTGTTGCCT (site TTGACTGCTAG) | 0.812
TTGACTGCTTGGGTTCTAACCTGTTGCCT (site TTGAGTGCTAG) | 0.0596
TTGACTGCTTGGGTTCTAACCTGTTGCCT (site TTGATTGCTAG) | 0.0272
TTGATATCTTGGGTTCTAACCTGTTGCCT (site TTGAAATCTAG) | 0.0834
TTGATATCTTGGGTTCTAACCTGTTGCCT (site TTGACATCTAG) | 0.264
TTGATATCTTGGGTTCTAACCTGTTGCCT (site TTGAGATCTAG) | 0.0244
TTGATATCTTGGGTTCTAACCTGTTGCCT (site TTGATATCTAG) | 0.149
TTGATGACTTGGGTTCTAACCTGTTGCCT (site TTGATGACTAG) | 1.25
TTGATGACTTGGGTTCTAACCTGTTGCCT (site TTGTAGACTAG) | 0.103
TTGCATTCTTGGGTTCTAACCTGTTGCTG (site AAAGGGGCTAG) | 0.147
TTGCATTCTTGGGTTCTAACCTGTTGCTG (site TTGCATTCTCA) | 0.962
TTGCGGCCTTGGGTTCTAACCTGTTGCAG (site CAAACTACTTG) | 0.0363
TTGCGGCCTTGGGTTCTAACCTGTTGCAG (site TTGCGGCCTCT) | 1.78
TTGGACACTTGGGTTCTAACCTGTTGCCT (site TTGGACACTAG) | 2.33
TTGGACACTTGGGTTCTAACCTGTTGCCT (site TTGGCCACTAG) | 0.0571
TTGGACACTTGGGTTCTAACCTGTTGCCT (site TTGGGCACTAG) | 0.327
TTGGACACTTGGGTTCTAACCTGTTGCCT (site TTGGTCACTAG) | 0.227

Sequence | recombinant barcode read abundance (log10)
TTGGACGCTTGGGTTCTAACCTGTTGCCT (site TTGGACGCTAG) | 2.37
TTGGACGCTTGGGTTCTAACCTGTTGCCT (site TTGGCCGCTAG) | 0.335
TTGGACGCTTGGGTTCTAACCTGTTGCCT (site TTGGGCGCTAG) | 0.838
TTGGACGCTTGGGTTCTAACCTGTTGCCT (site TTGGTCGCTAG) | 0.133
TTGGGTGCTTGGGTTCTAACCTGTTGCCG (site TTGGGTGCTCG) | 1.81
TTGGGTGCTTGGGTTCTAACCTGTTGCCG (site TTGGGTTCTAG) | 0.0649
TTGGTTCCTTGGGTTCTAACCTGTTGCCT (site TTGGTACCTAG) | 0.155
TTGGTTCCTTGGGTTCTAACCTGTTGCCT (site TTGGTCCCTAG) | 0.0439
TTGGTTCCTTGGGTTCTAACCTGTTGCCT (site TTGGTGCCTAG) | 0.43
TTGGTTCCTTGGGTTCTAACCTGTTGCCT (site TTGGTTCCTAG) | 2.07
TTGTAAGCTTGGGTTCTAACCTGTTGCCG (site TTGTAAGCTCG) | 0.653
TTGTAAGCTTGGGTTCTAACCTGTTGCCG (site TTGTGAGCTCC) | 0.441
TTGTACACTTGGGTTCTAACCTGTTGCCC (site CACATGCCTCA) | 0.452
TTGTACACTTGGGTTCTAACCTGTTGCCC (site TTGTACACTGG) | 0.996
TTGTCTCCTTGGGTTCTAACCTGTTGCCT (site ATGTCTCCTAG) | 0.0689
TTGTCTCCTTGGGTTCTAACCTGTTGCCT (site CTGTCTCCTAG) | 0.0237
TTGTCTCCTTGGGTTCTAACCTGTTGCCT (site GTGTCTCCTAG) | 0.109
TTGTCTCCTTGGGTTCTAACCTGTTGCCT (site TTGTCTCCTAG) | 0.304
TTGTGTTCTTGGGTTCTAACCTGTTGCTT (site TTGTACTCTAA) | 0.00637
TTGTGTTCTTGGGTTCTAACCTGTTGCTT (site TTGTGTTCTAA) | 0.159

Assay: recombinant barcode read abundance after kanamycin selection (control-corrected) (log10(CPM+1)); higher = more efficient recombination; sequences stand for … in AGTGCAGAGAAAATCGGCCAGTTTTCTCTGCCTGCAGTCCGCATGCCGT…ATTTATGCAGCGGACTGCCTTTCTCCCAAAGTGATAAACCGGACAGTATCATGGACCGGTTTTCCCGGTAATCCGTATTTGCAAGGTTGGTTTCACT; site = the 11-nt target
Method: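 Same pooled E. coli target screen (IS621 bridge recombinase, kanamycin selection, control-corrected CPM, mean of 2 biological replicates). Here the two core-binding nucleotides of the LTG and RTG of the bridge RNA target-binding loop are mutated. Target and donor CT cores are held constant, and the other 9 guide positions match the target. The target is read from the library oligo sequence. Molecule = full bridge RNA written as DNA: nt 1-80 from the library oligo, rest WT scaffold.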

Sequence | recombinant barcode read abundance (log10)
AAACACAACTGGGTTCTAACCTGTTGCCTAG [AAACACACTAG_LTGcore_AC_RTGcore_CT] (site AAACACACTAG) (LTG core: AC, RTG core: CT) | 0.0236
AAACACAAGTGGGTTCTAACCTGTTGCCTCT [AAACACACTAG_LTGcore_AG_RTGcore_AG] (site AAACACACTAG) (LTG core: AG, RTG core: AG) | 0.196
AAACACACATGGGTTCTAACCTGTTGCCTTG [AAACACACTAG_LTGcore_CA_RTGcore_CA] (site AAACACACTAG) (LTG core: CA, RTG core: CA) | 0.341
AAACACACTTGGGTTCTAACCTGTTGCCTAC [AAACACACTAG_LTGcore_CT_RTGcore_GT] (site AAACACACTAG) (LTG core: CT, RTG core: GT) | 0.217
AAACACACTTGGGTTCTAACCTGTTGCCTAG [AAACACACTAG_LTGcore_CT_RTGcore_CT] (site AAACACACTAG) (LTG core: CT, RTG core: CT) | 2
